Values joined by “and” are separate entries in the source; they are usually repeats but may differ in a detail not shown here. Identical values can stand only once.

Here are results for 44 compounds from patent US12507703B2, “Methods, devices and compositions for preserving human milk” (The Trustees of Princeton University, priority 2023, dated 2025).

The assay has as its system lipase. As to the kind of experiment: Lipase/lipolysis assay (EnzChek Lipase Substrate, quenched BODIPY-fatty acid conjugate) on stored human milk. Note: test concentration or dose not given here.
For `C[C@H](CCC(=O)NCCS(=O)(=O)[O-])[C@H]1CC[C@H]2[C@@H]3[C@H](O)C[C@@H]4C[C@H](O)CC[C@]4(C)[C@H]3CC[C@]12C.[Na+]` [Taurochenodeoxycholic acid (sodium)], the “Lipase (RFU)” value turned out to be 1047.423 RFU.

With `C[N+](C)(C)CCCC[C@H](N)C(=O)O` [Nε,Nε,Nε-Trimethyllysine (chloride)], the “Lipase (RFU)” value turned out to be 1143.924 RFU.

As for Phytol, the “Lipase (RFU)” value was 1207.906 RFU and 715.6019 RFU.

For the compound `CCN(CC)CCOC(=O)C(Cc1cccc2ccccc12)CC1CCCO1.O=C(O)C(=O)O` (centres unmarked) [Naftidrofuryl (oxalate)], the “Lipase (RFU)” value came out at 1022.029 RFU.

For `CCCCC[C@H](O)/C=C/[C@H]1C(=O)C[C@H](O)[C@@H]1C/C=C\CCCC(=O)O` [Prostaglandin D2], the “Lipase (RFU)” value is 071064.5 RFU.

As for `C[C@H](CCC(=O)NCCS(=O)(=O)O)[C@H]1CC[C@H]2[C@@H]3[C@@H](O)C[C@@H]4C[C@H](O)CC[C@]4(C)[C@H]3CC[C@]12C.O.O` [Tauroursodeoxycholate (dihydrate)], the “Lipase (RFU)” value was found to be 1204.528 RFU.

With Estrone sulfate (potassium), the “Lipase (RFU)” value is 961.3154 RFU.

`CCCCCCCC/C=C\CCCCCCCC(=O)O[C@H](CC(=O)[O-])C[N+](C)(C)C` [Oleoylcarnitine]: the “Lipase (RFU)” value is 870.8673 RFU.

Turning to `CC1(C)S[C@@H]2[C@H](NC(=O)[C@H](N)c3ccc(O)cc3)C(=O)N2[C@H]1C(=O)[O-].[Na+]` [Amoxicillin (sodium)], the “Lipase (RFU)” value was 1082.26 RFU.

Consider `OC[C@H](O)C(O)[C@@H](O)CO` [L-Arabitol], for which the “Lipase (RFU)” value was found to be 912.8862 RFU.

Take `CC(C)=CCC[C@H](C)[C@@H]1CC[C@]2(C)C3=C(CC[C@@]12C)[C@@]1(C)CC[C@H](O)C(C)(C)[C@@H]1CC3` [Tirucallol]: the “Lipase (RFU)” value was 1060.924 RFU.

As for `CC(=O)N[C@H]1[C@H](O[C@H]2[C@H](O)[C@@H](NC(C)=O)C(O)O[C@@H]2CO)O[C@H](CO)[C@@H](O[C@@H]2O[C@H](CO)[C@@H](O)[C@H](O)[C@H]2NC(C)=O)[C@@H]1O` (some centres unmarked) [N,N′,N″-Triacetylchitotriose], the “Lipase (RFU)” value is on record as 1143.03 RFU.

`COc1c(O)cc2oc(-c3ccc(O)c(O)c3)cc(=O)c2c1O` [Nepetin]: the “Lipase (RFU)” value was 666.0077 RFU.

Consider `C[C@H]1CCCC(=O)CCC/C=C/c2cc(O)cc(O)c2C(=O)O1` [Zearalenone], for which the “Lipase (RFU)” value was determined as 758.7174 RFU.

For `C[C@H](CCC(=O)NCCS(=O)(=O)O)[C@H]1CC[C@H]2[C@@H]3[C@H](O)C[C@@H]4C[C@H](O)CC[C@]4(C)[C@H]3C[C@H](O)[C@]12C` [Taurocholic Acid], the “Lipase (RFU)” value is 1299.592 RFU and 949.1523 RFU and 900.9931 RFU.

As to `Oc1cc(O)c2c(c1)OC1(c3ccc(O)c(O)c3)Oc3cc(O)c4c(c3C2C1O)OC(c1ccc(O)c(O)c1)C(O)C4` (centres unmarked) [Procyanidin A1], the “Lipase (RFU)” value is listed as 1206.886 RFU.

Regarding `Cc1cc(O)c(C)c2c1O[C@](C)(CCC[C@H](C)CCC[C@H](C)CCCC(C)C)CC2` (relative stereo) [(rel)-β-Tocopherol], the “Lipase (RFU)” value is reported as 1146.301 RFU.

Consider Erythrosine B, for which the “Lipase (RFU)” value is on record as 836.3958 RFU.

`c1ccc(CSSCc2ccccc2)cc1` [Dibenzyl disulfide]: the “Lipase (RFU)” value turned out to be 1113.399 RFU.

For `O=C(O)c1ccccc1` [Benzoic Acid], the “Lipase (RFU)” value is 1003.567 RFU and 1115.708 RFU and 946.6732 RFU.

For the compound Catechin, the “Lipase (RFU)” value is recorded as 945.7654 RFU.

As for `c1ccc2c(c1)[nH]c1cnccc12` [Norharmane], the “Lipase (RFU)” value was determined as 960.1337 RFU.

In the case of Riboflavin (phosphate sodium), the “Lipase (RFU)” value is recorded as 1091.899 RFU.

Consider `CC1=C2[C@H]3OC(=O)[C@@H](C)[C@@H]3CC[C@@]2(C)C=CC1=O` [Santonin], for which the “Lipase (RFU)” value came to 895.7689 RFU.

Regarding `O=C1O[C@H](CO)[C@@H](O)[C@H]1O` [D-Ribonolactone], the “Lipase (RFU)” value is reported as 702.8507 RFU.

Consider Gentiobiose, for which the “Lipase (RFU)” value came out at 1106.66 RFU.

On to `OC[C@H]1O[C@H](OC[C@H]2OC(O)(CO)[C@@H](O)[C@@H]2O)[C@H](O)[C@@H](O)[C@@H]1O` (some centres unmarked) [Palatinose], for which the “Lipase (RFU)” value amounted to 803.211 RFU.

Turning to `COc1cc(O[C@@H]2O[C@H](CO[C@@H]3O[C@H](CO)[C@@H](O)[C@H](O)[C@H]3O)[C@@H](O)[C@H](O)[C@H]2O)c2c(O)c3c(=O)oc(C)cc3cc2c1` [Cassiaside C], the “Lipase (RFU)” value stood at 979.0974 RFU.

Take `OC[C@H]1O[C@@](CO)(OC[C@@]2(O[C@H]3O[C@H](CO)[C@@H](O)[C@H](O)[C@H]3O)O[C@H](CO)[C@@H](O)[C@@H]2O)[C@@H](O)[C@@H]1O` [Compound 1-Kestose]: the “Lipase (RFU)” value is on record as 1115.168 RFU.

As to `OC[C@@H](O)C(O)[C@H](O)CO` [D-Arabitol], the “Lipase (RFU)” value was 977.3738 RFU and 986.8626 RFU.

As to `CC(C)(C(=O)O)C(=O)O` [Dimethylmalonic acid], the “Lipase (RFU)” value came to 890.7612 RFU.

On to `Cc1c[nH]c2ccccc12` [Skatole], for which the “Lipase (RFU)” value was 735.1893 RFU and 599.6554 RFU.

With `C=C[C@](C)(O)CC[C@H]1C(=C)CC[C@H]2C(C)(C)CCC[C@]12C` [Manool], the “Lipase (RFU)” value is given as 923.6944 RFU.

Turning to `C[C@H]1CC[C@@H]2[C@@H](C)[C@H]3[C@H](C[C@H]4[C@@H]5CC=C6C[C@@H](O[C@@H]7O[C@H](CO)[C@H](O)[C@H](O[C@@H]8O[C@H](CO)[C@@H](O)[C@H](O)[C@H]8O)[C@H]7O[C@@H]7O[C@@H](C)[C@H](O)[C@@H](O)[C@H]7O)CC[C@]6(C)[C@H]5CC[C@]34C)N2C1` [α-Solanine], the “Lipase (RFU)” value came to 840.4474 RFU.

As for `COn1cc(CC#N)c2ccccc21` [Caulilexin C], the “Lipase (RFU)” value turned out to be 998.4752 RFU.

With `COC(=O)C1=CO[C@@H](O[C@@H]2O[C@H](CO)[C@@H](O)[C@H](O)[C@H]2O)[C@H]2[C@@H]1C(=O)C[C@@H]2C` [Verbenalin], the “Lipase (RFU)” value turned out to be 1051.385 RFU.

Regarding `COC(=O)C1=CO[C@@H](O[C@@H]2O[C@H](CO)[C@@H](O)[C@H](O)[C@H]2O)[C@@H]2[C@@H](C)CC(=O)[C@]12O` [Hastatoside], the “Lipase (RFU)” value is 738.976 RFU.

For the compound `COc1cc(-c2[o+]c3cc(O)cc(O)c3cc2O)cc(O)c1O.[Cl-]` [Petunidin (chloride)], the “Lipase (RFU)” value stood at 1018.887 RFU.

`CC1CCC(C(C)C)C(O)C1` (racemic) [DL-Menthol]: the “Lipase (RFU)” value is listed as 1275.242 RFU.

As for `O=C(CCc1ccc(O)cc1)c1c(O)cc(O[C@@H]2O[C@H](CO)[C@@H](O)[C@H](O)[C@H]2O)cc1O` [Trilobatin], the “Lipase (RFU)” value was 813.3377 RFU and 1211.862 RFU.

On to `C[C@H]1CC[C@]2(NC1)O[C@H]1C[C@H]3[C@@H]4CC[C@H]5C[C@@H](O)CC[C@]5(C)[C@H]4CC[C@]3(C)[C@H]1[C@@H]2C` [Tomatidine], for which the “Lipase (RFU)” value is 1057.071 RFU.

Consider `CC(C)=CCc1c(O)c(CC=C(C)C)c2oc3c(O)cccc3c(=O)c2c1O` [Compound 8-Deoxygartanin], for which the “Lipase (RFU)” value was determined as 1168.142 RFU.

Consider `COc1cc(/C=C/CO)cc(OC)c1O[C@@H]1O[C@H](CO)[C@@H](O)[C@H](O)[C@H]1O` [Syringin], for which the “Lipase (RFU)” value stood at 935.9617 RFU.

In the case of `Nc1ncnc(N[C@@H]2O[C@H](CO)[C@@H](O)[C@H]2O)c1[N+](=O)[O-]` [Clitocine], the “Lipase (RFU)” value was 1144.133 RFU.
